Read-outs that look alike come from different tables or passages of the source.
Tests used:
A2780 cells = assay: Cell Proliferation Assay (Cell Titer Glo), A2780; type: cell-based; details: Homo sapiens; Cell Proliferation Assay, A2780; read-out: CPEC50 A2780
Method: IV. Cell Proliferation Assay Protocol:
A2780, PC-3, or PC3MM cells were seeded at 1000 cells/well in 100 μL/well (10.000 cells/mL) growth media in 96-well plates. Cells were allowed to adhere to the bottom of plates for 3-5 hours in a 37° C. 5% CO2 incubator. Compounds were dissolved in DMSO and then transferred to the cell plates. The cells were incubated with the compounds for 3 days in a 37° C. 5% CO2 incubator. The growth medium containing the compounds was then removed from the cells and fresh medium was added, followed by 100 μL of Cell Titer Glo assay reagent (Promega). This mixture was shaken for 1 minute and then incubated without shaking for 10 minutes. Activity determinations for the compounds were made by detection on a Trilux Instrument.

PDK1 kinase = target: T1, PDK1 kinase (Homo sapiens, UniProt O15530); assay: PDK1 Kinase Alpha Screen Assay; type: biochemical; details: read-out: PDK1 IC50
T1 sequence (O15530 1-556): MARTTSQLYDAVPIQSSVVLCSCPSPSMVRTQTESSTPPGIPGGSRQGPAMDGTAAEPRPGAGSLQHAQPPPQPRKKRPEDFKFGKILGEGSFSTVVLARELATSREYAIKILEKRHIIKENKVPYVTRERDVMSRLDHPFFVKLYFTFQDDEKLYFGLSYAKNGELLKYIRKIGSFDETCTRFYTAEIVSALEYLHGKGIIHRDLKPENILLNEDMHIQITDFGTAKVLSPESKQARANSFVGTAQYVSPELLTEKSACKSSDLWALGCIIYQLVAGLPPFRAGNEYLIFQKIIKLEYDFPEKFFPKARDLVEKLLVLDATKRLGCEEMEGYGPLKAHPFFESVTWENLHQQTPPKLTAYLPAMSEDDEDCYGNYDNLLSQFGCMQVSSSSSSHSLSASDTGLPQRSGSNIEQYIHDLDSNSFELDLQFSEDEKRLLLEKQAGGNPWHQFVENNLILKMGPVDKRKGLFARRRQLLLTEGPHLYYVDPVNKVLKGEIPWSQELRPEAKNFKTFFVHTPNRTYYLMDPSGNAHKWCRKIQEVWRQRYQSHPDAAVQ
In short: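 PDK1 phosphorylated 50 nM biotinylated PDK1-4 peptide with 10 uM ATP in Tris pH 7.5, 10 mM MgCl2, 2 mM DTT, 2.5% DMSO for 3-18 hours. After EDTA stop, phosphopeptide was detected by AlphaScreen using phospho-(Ser/Thr) PKA substrate antibody with protein A/streptavidin beads, read after overnight incubation.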

PC-3 cells = assay: Cell Proliferation Assay (Cell Titer Glo), PC-3 cell line; type: cell-based; details: Homo sapiens, read-out: CPEC50 PC3
In short: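 PC-3 cells, 1000 cells/well, left to adhere 3-5 h, then exposed for 3 days at 37° C to compounds as 1:3 serial dilutions from 500× DMSO stocks diluted in growth medium. Medium then replaced with fresh medium and viability read by Cell Titer Glo luminescence.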

[1] = PC-3, Cell Proliferation Assay, PC3

SMILES	IC50 (PDK1 kinase; PDK1 Kinase Alpha Screen Assay) [µM]	EC50 (PC-3 cells; [1]) [µM]	also measured
NS(=O)(=O)c1ccc(Nc2ncc3cccc(C(=O)NCc4ccccn4)c3n2)cc1 [Compound 419, N-(pyridin-2-ylmethyl)-2-(4-sulfamoylphenylamino)quinazoline-8-carboxamide]	–	–	EC50 (A2780 cells): 5 to 10 µM
NS(=O)(=O)c1ccc(Nc2ncc3cccc(C(=O)NC4CCOCC4)c3n2)cc1 [Compound 625, 2-(4-sulfamoylphenylamino)-N-(tetrahydro-2H-pyran-4-yl)quinazoline-8-carboxamide]	–	–	EC50 (A2780 cells): < 5 µM
CNC(=O)c1cc(Oc2ccc3cnc(Nc4ccc(S(N)(=O)=O)cc4)nc3c2)ccn1 [Compound 563, N-methyl-4-(2-(4-sulfamoylphenylamino)quinazolin-7-yloxy)picolinamide]	–	–	EC50 (A2780 cells): 5 to 10 µM
COc1cc(-c2ccc3cnc(Nc4ccc(S(N)(=O)=O)cc4)nc3c2)c(Cl)cn1 [Compound 696, 4-(7-(5-chloro-2-methoxypyridin-4-yl)quinazolin-2-ylamino)benzenesulfonamide]	–	–	EC50 (A2780 cells): 5 to 10 µM
Cn1cc(-c2ccc3cnc(Nc4ccc(S(=O)(=O)N5CCOCC5)cc4)nc3c2)cn1 [Compound 317, 7-(1-methyl-1H-pyrazol-4-yl)-N-(4-(morpholinosulfonyl)phenyl)quinazolin-2-amine]	–	–	EC50 (A2780 cells): < 5 µM
CNC(=O)Cc1cccc(Nc2ncc3cccc(-c4ccc(NCCN5CCCC5)nc4)c3n2)c1 [Compound 401, N-methyl-2-(3-(8-(6-(2-(pyrrolidin-1-yl)ethylamino)pyridin-3-yl)quinazolin-2-ylamino)phenyl)acetamide]	< 5	< 5	–
CC(C)NC(=O)c1ccc(Nc2ncc3cccc(OC4CCNCC4)c3n2)cc1F [Compound 439, 2-fluoro-N-isopropyl-4-(8-(piperidin-4-yloxy)quinazolin-2-ylamino)benzamide]	< 5	< 5	–
O=S(=O)(c1cccc(Nc2ncc3c(Cl)ccc(OC4CNC4)c3n2)c1)N1CCOCC1 [Compound 616, 8-(azetidin-3-yloxy)-5-chloro-N-(3-(morpholinosulfonyl)phenyl)quinazolin-2-amine]	< 5	< 5	–
CC(C)N1CCC(Oc2cc(C#N)cc3cnc(Nc4ccc(N5CCOCC5)cc4)nc23)CC1 [Compound 699, 8-(1-isopropylpiperidin-4-yloxy)-2-(4-morpholinophenylamino)quinazoline-6-carbonitrile]	< 5	< 5	–
c1cc(OC2CCNCC2)c2nc(Nc3ccc(N4CCOCC4)nc3)ncc2c1 [Compound 470, N-(6-morpholinopyridin-3-yl)-8-(piperidin-4-yloxy)quinazolin-2-amine]	< 5	< 5	–
N#Cc1cc2cnc(Nc3ccc(N4CCOCC4)cc3)nc2cc1OC1CCNCC1 [Compound 644, 2-(4-morpholinophenylamino)-7-(piperidin-4-yloxy)quinazoline-6-carbonitrile]	< 5	< 5	–
Nc1cc(C(F)(F)F)c(-c2cccc3cnc(Nc4ccc(S(N)(=O)=O)cc4)nc23)cn1 [Compound 930, 4-(8-(6-amino-4-(trifluoromethyl)pyridin-3-yl)quinazolin-2-ylamino)benzenesulfonamide]	–	–	IC50 (PDK1 kinase): < 5 µM; EC50 (PC-3 cells; PC-3, PC3 cells): < 5 µM
CC(C)N1CCC(Oc2ccc3cnc(Nc4ccc(S(C)(=O)=O)cc4)nc3c2)CC1 [Compound 331, 7-(1-isopropylpiperidin-4-yloxy)-N-(4-(methylsulfonyl)phenyl)quinazolin-2-amine]	< 5	< 5	–
Clc1ccc(OC2CCNCC2)c2nc(Nc3ccc(N4CCOCC4)cc3)ncc12 [Compound 605, 5-chloro-N-(4-morpholinophenyl)-8-(piperidin-4-yloxy)quinazolin-2-amine]	< 5	5 to 10	–
NS(=O)(=O)c1ccc(Nc2ncc3cccc(C4=CCNCC4)c3n2)cc1 [Compound 987, 4-(8-(1.2,3,6-tetrahydropyridin-4-yl)quinazolin-2-ylamino)benzenesulfonamide]	–	–	IC50 (PDK1 kinase): < 5 µM; EC50 (PC-3 cells; PC-3, PC3 cells): < 5 µM
NS(=O)(=O)c1ccc(Nc2ncc3cccc(-c4ccc(NCCCN5CCCC5)nc4)c3n2)cc1 [Compound 972, 4-(8-(6-(3-(pyrrolidin-1-yl)propylamino)pyridin-3-yl)quinazolin-2-ylamino)benzenesulfonamide]	–	–	IC50 (PDK1 kinase): < 5 µM; EC50 (PC-3 cells; PC-3, PC3 cells): < 5 µM
CC(C)N1CCC(Oc2ccc3cnc(Nc4cccc(N5CCOCC5)c4)nc3c2)CC1 [Compound 580, 7-(1-isopropylpiperidin-4-yloxy)-N-(3-morpholinophenyl)quinazolin-2-amine]	5 to 10	5 to 10	–
CC(C)N1CCC(Oc2cccc3cnc(N)nc23)CC1 [Compound 523, 8-(1-isopropylpiperidin-4-yloxy)quinazolin-2-amine]	5 to 10	5 to 10	–
CC(C)NC(=O)c1cc(F)cc(Nc2ncc3cccc(OC4CCNCC4)c3n2)c1 [Compound 461, 3-fluoro-N-isopropyl-5-(8-(piperidin-4-yloxy)quinazolin-2-ylamino)benzamide]	< 5	< 5	–
CC(=O)Nc1ccc(Nc2ncc3cccc(-c4ccc(NCCN5CCCC5)nc4)c3n2)cc1C [Compound 1027, N-(2-methyl-4-(8-(6-(2-(pyrrolidin-1-yl)ethylamino)pyridin-3-yl)quinazolin-2-ylamino)phenyl)acetamide]	–	–	IC50 (PDK1 kinase): < 5 µM; EC50 (PC-3 cells; PC-3, PC3 cells): < 5 µM
CC(C)Cn1cc(-c2ccc3cnc(Nc4ccc(S(=O)(=O)NCCN5CCN(C)CC5)cc4)nc3c2)cn1 [Compound 712, 4-(7-(1-isobutyl-1H-pyrazol-4-yl)quinazolin-2-ylamino)-N-(2-(4-methylpiperazin-1-yl)ethyl)benzenesulfonamide]	< 5	–	EC50 (PC-3 cells; PC-3, Cell Proliferation Assay, PC3 cells): < 5 µM
CC(C)N1CCC(Oc2ccc3cnc(Nc4ccc5nn[nH]c5c4)nc3c2)CC1 [Compound 577, N-(1H-benzo[d][1,2,3]triazol-6-yl)-7-(1-isopropylpiperidin-4-yloxy)quinazolin-2-amine]	< 5	5 to 10	–
C#Cc1cc(OC2CCN(C(C)C)CC2)c2nc(Nc3cccc(N4CCOCC4)c3)ncc2c1 [Compound 697, 6-ethynyl-8-(1-isopropylpiperidin-4-yloxy)-N-(3-morpholinophenyl)quinazolin-2-amine]	< 5	< 5	–
O=C(c1ccc(Nc2ncc3ccc(-c4cnn(CCO)c4)cc3n2)cc1)N1CCOCC1 [Compound 353, (4-(7-(1-(2-hydroxyethyl)-1H-pyrazol-4-yl)quinazolin-2-ylamino)phenyl)(morpholino)methanone]	< 5	5 to 10	–
NS(=O)(=O)c1ccc(Nc2ncc3cccc(CNCCN4CCCC4)c3n2)cc1 [Compound 935, 4-(8-((2-(pyrrolidin-1-yl)ethylamino)methyl)quinazolin-2-ylamino)benzenesulfonamide]	–	–	IC50 (PDK1 kinase): < 5 µM; EC50 (PC-3 cells; PC-3, PC3 cells): 5 to 10 µM
Fc1cc(Nc2ncc3ccc(OC4CCNCC4)cc3n2)ccc1Br [Compound 596, N-(4-bromo-3-fluorophenyl)-7-(piperidin-4-yloxy)quinazolin-2-amine]	< 5	< 5	–
O=C(NC1CCOCC1)c1ccc(Nc2ncc3cccc(OC4CCNCC4)c3n2)cc1F [Compound 440, 2-fluoro-4-(8-(piperidin-4-yloxy)quinazolin-2-ylamino)-N-(tetrahydro-2H-pyran-4-yl)benzamide]	< 5	< 5	–

Reference: US7932262B2 (Novartis AG, priority 2006, dated 2011)
